Test system: VEGFR
Test: Cell-based competitive binding assay on U87MG cells
Set-up: species or system human
Details: read-out: IC50, competitive binding, competition against [^64Cu]VEGF125–136 (74 kBq/1 mL), competitor 0-10 000 nmol/L, 37 °C, 1 h, γ counter, triplicate

**Q.** How did the IC50 turn out when QKRKRKKSRYKS [VEGF125–136] was run?
**A.** The IC50 was 277 ± 6.19 nM.

— PMC7178340 (ACS Omega, 2020)
